Results from BindingDB's records for doi:10.7270/Q29Z94WS (Warner-Lambert, 1995).

biological target: T1, Sterol O-acyltransferase 1 (Rattus norvegicus, UniProt O70536); experiment: (§1) Concentration required for the in vitro inhibition of Acyl coenzyme A:cholesterol acyltransferase (ACAT) in liver microsomes isolated from cholesterol-fed rats was determined
T1 sequence (O70536 whole entry): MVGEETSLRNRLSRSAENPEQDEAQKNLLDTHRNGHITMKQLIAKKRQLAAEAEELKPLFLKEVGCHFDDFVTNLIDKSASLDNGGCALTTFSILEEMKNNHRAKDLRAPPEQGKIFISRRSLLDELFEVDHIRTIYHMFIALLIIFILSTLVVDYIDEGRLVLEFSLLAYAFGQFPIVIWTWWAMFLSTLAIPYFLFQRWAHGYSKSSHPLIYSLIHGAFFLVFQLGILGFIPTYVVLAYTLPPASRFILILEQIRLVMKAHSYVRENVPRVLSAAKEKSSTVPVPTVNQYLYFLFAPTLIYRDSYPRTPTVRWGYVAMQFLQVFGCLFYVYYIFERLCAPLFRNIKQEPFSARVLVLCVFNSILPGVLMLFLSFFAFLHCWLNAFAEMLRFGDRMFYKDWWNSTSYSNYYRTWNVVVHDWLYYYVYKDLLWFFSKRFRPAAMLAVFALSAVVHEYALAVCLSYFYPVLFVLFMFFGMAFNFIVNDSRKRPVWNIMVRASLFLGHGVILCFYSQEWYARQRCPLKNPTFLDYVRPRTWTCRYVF

Row | IC50 | SMILES
1 | 24 nM | CCCCCCCCCCCCn1nnc(C(C(=O)Nc2c(OC)cc(OC)cc2OC)c2ccccc2)n1 (configuration not stated) [2-(2-Dodecyl-2H-tetrazol-5-yl)-2-phenyl-N-(2,4,6-trimethoxy-phenyl)-acetamide]

biological target: T1, Sterol O-acyltransferase 1; experiment: ChEBML_28484; experimental: as §1

Row | IC50 | SMILES
2 | 160 nM | CCCCCCCC[C@H](SCCCCCC)C(=O)Nc1c(SC)cc[n+](C)c1SC
3 | 79 nM | CCCCCCCCCCCCn1nnnc1C(C(=O)Nc1c(C(C)C)cccc1C(C)C)c1ccccc1 (configuration not stated)
4 | 10 nM | CCCCCCCCCCCCn1nnc(C(C(=O)Nc2c(C(C)C)cccc2C(C)C)c2ccccc2)n1 (configuration not stated) [N-(2,6-Diisopropyl-phenyl)-2-(2-dodecyl-2H-tetrazol-5-yl)-2-phenyl-acetamide]
5 | 52 nM | CCCCCCCCCCCCn1nnnc1C(C(=O)Nc1c(OC)cc(OC)cc1OC)c1ccccc1 (configuration not stated)
6 | 22 nM | CCCCCCCC[C@@H](SCCCCCC)C(=O)Nc1c(SC)cc[n+](C)c1SC
7 | 14 nM | CCCCCCCCCCCCn1nnc(C(C(=O)Nc2c(OC)cc(OC)cc2OC)c2ccccc2)n1 (configuration not stated) [2-(2-Dodecyl-2H-tetrazol-5-yl)-2-phenyl-N-(2,4,6-trimethoxy-phenyl)-acetamide]
